Data published in the supplement of paper PMC10307832.

Legend:
Test in all cases: relative viability (nuclei count vs DMSO), 5 days (fraction); higher = more cells survive
[1] = system: NCI-H727
In short: (§1)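 The day after seeding in 1536-well plates, lung cancer cell lines were treated by pin tool with a single drug, or with a fixed anchor-drug dose together with five library-drug doses (not always all listed) in √10 steps. After 5 days, a combined fix-and-stain solution (final 0.05% Triton X-100, 1% formaldehyde, 1 ug/ml Hoechst) was added. Nuclei counted on 4× images gave relative viability as treated counts over vehicle counts, reported as the median of duplicate plates.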

[2] = system: NCI-H650
In short: as §1

[3] = system: NCI-H1755
In short: as §1

[4] = system: SW 900
In short: as §1

[5] = system: NCI-H1437
In short: as §1

[6] = system: NCI-H2126
In short: as §1

[7] = system: NCI-H358
In short: as §1

[8] = system: NCI-H2170
In short: as §1

[9] = system: NCI-H1734
In short: as §1

[10] = system: BEN
In short: as §1

[11] = system: LU99A
In short: as §1

[12] = system: SW 1573
In short: as §1

[13] = system: HCC-44
In short: as §1

[14] = system: EMC-BAC-2
In short: as §1

[15] = system: NCI-H2023
In short: as §1

[16] = system: NCI-H3122
In short: as §1

[17] = system: LC-2-ad
In short: as §1

[18] = system: HCC-15
In short: as §1

[19] = system: HOP-62
In short: as §1

[20] = system: NCI-H1915
In short: as §1

[21] = system: NCI-H1395
In short: as §1

CCNC(=O)c1noc(-c2cc(C(C)C)c(O)cc2O)c1-c1ccc(CN2CCOCC2)cc1 [Luminespib] + Cc1cc(Nc2cc(N3CCN(C)CC3)nc(Sc3ccc(NC(=O)C4CC4)cc3)n2)n[nH]1 [Tozasertib] (partner 0.1 µM)
relative viability ([1]; first compound 0.002 µM): 0.61
relative viability ([1]; first compound 0.006325 µM): 0.614
relative viability ([1]; first compound 0.02 µM): 0.505
relative viability ([1]; first compound 0.06325 µM): 0.314
relative viability ([1]; first compound 0.2 µM): 0.291
relative viability ([2]; first compound 0.002 µM): 0.805
relative viability ([2]; first compound 0.006325 µM): 0.695
relative viability ([2]; first compound 0.02 µM): 0.516
relative viability ([2]; first compound 0.06325 µM): 0.199
relative viability ([2]; first compound 0.2 µM): 0.0951
relative viability ([3]; first compound 0.002 µM): 0.585
relative viability ([3]; first compound 0.006325 µM): 0.592
relative viability ([3]; first compound 0.02 µM): 0.646
relative viability ([3]; first compound 0.06325 µM): 0.214
relative viability ([3]; first compound 0.2 µM): 0.192
relative viability ([4]; first compound 0.002 µM): 0.638
relative viability ([4]; first compound 0.006325 µM): 0.623
relative viability ([4]; first compound 0.02 µM): 0.591
relative viability ([4]; first compound 0.06325 µM): 0.15
relative viability ([4]; first compound 0.2 µM): 0.117
relative viability ([5]; first compound 0.002 µM): 0.385
relative viability ([5]; first compound 0.006325 µM): 0.359
relative viability ([5]; first compound 0.02 µM): 0.497
relative viability ([5]; first compound 0.06325 µM): 0.508
relative viability ([5]; first compound 0.2 µM): 0.238
relative viability ([6]; first compound 0.002 µM): 0.844
relative viability ([6]; first compound 0.006325 µM): 0.879
relative viability ([6]; first compound 0.02 µM): 0.661
relative viability ([6]; first compound 0.06325 µM): 0.5
relative viability ([6]; first compound 0.2 µM): 0.264
relative viability ([7]; first compound 0.002 µM): 0.0938
relative viability ([7]; first compound 0.006325 µM): 0.115
relative viability ([7]; first compound 0.02 µM): 0.104
relative viability ([7]; first compound 0.06325 µM): 0.0661
relative viability ([7]; first compound 0.2 µM): 0.0636
relative viability ([8]; first compound 0.002 µM): 0.72
relative viability ([8]; first compound 0.006325 µM): 0.737
relative viability ([8]; first compound 0.02 µM): 0.398
relative viability ([8]; first compound 0.06325 µM): 0.299
relative viability ([8]; first compound 0.2 µM): 0.158
relative viability ([9]; first compound 0.002 µM): 0.248
relative viability ([9]; first compound 0.006325 µM): 0.254
relative viability ([9]; first compound 0.02 µM): 0.252
relative viability ([9]; first compound 0.06325 µM): 0.143
relative viability ([9]; first compound 0.2 µM): 0.154
relative viability ([10]; first compound 0.002 µM): 0.554
relative viability ([10]; first compound 0.006325 µM): 0.458
relative viability ([10]; first compound 0.02 µM): 0.475
relative viability ([10]; first compound 0.06325 µM): 0.37
relative viability ([10]; first compound 0.2 µM): 0.383
relative viability ([11]; first compound 0.002 µM): 0.261
relative viability ([11]; first compound 0.006325 µM): 0.277
relative viability ([11]; first compound 0.02 µM): 0.252
relative viability ([11]; first compound 0.06325 µM): 0.176
relative viability ([11]; first compound 0.2 µM): 0.139
relative viability ([12]; first compound 0.002 µM): 0.199
relative viability ([12]; first compound 0.006325 µM): 0.175
relative viability ([12]; first compound 0.02 µM): 0.173
relative viability ([12]; first compound 0.06325 µM): 0.113
relative viability ([12]; first compound 0.2 µM): 0.0892
relative viability ([13]; first compound 0.002 µM): 1.01
relative viability ([13]; first compound 0.006325 µM): 0.766
relative viability ([13]; first compound 0.02 µM): 0.99
relative viability ([13]; first compound 0.06325 µM): 0.169
relative viability ([13]; first compound 0.2 µM): 0.159
relative viability ([14]; first compound 0.002 µM): 0.345
relative viability ([14]; first compound 0.006325 µM): 0.261
relative viability ([14]; first compound 0.02 µM): 0.28
relative viability ([14]; first compound 0.06325 µM): 0.342
relative viability ([14]; first compound 0.2 µM): 0.299
relative viability ([15]; first compound 0.002 µM): 0.395
relative viability ([15]; first compound 0.006325 µM): 0.389
relative viability ([15]; first compound 0.02 µM): 0.343
relative viability ([15]; first compound 0.06325 µM): 0.0657
relative viability ([15]; first compound 0.2 µM): 0.0748
relative viability ([16]; first compound 0.002 µM): 0.451
relative viability ([16]; first compound 0.006325 µM): 0.39
relative viability ([16]; first compound 0.02 µM): 0.106
relative viability ([16]; first compound 0.06325 µM): 0.0834
relative viability ([16]; first compound 0.2 µM): 0.0832
relative viability ([17]; first compound 0.002 µM): 0.482
relative viability ([17]; first compound 0.006325 µM): 0.493
relative viability ([17]; first compound 0.02 µM): 0.414
relative viability ([17]; first compound 0.06325 µM): 0.258
relative viability ([17]; first compound 0.2 µM): 0.251
relative viability ([18]; first compound 0.002 µM): 0.466
relative viability ([18]; first compound 0.006325 µM): 0.441
relative viability ([18]; first compound 0.02 µM): 0.444
relative viability ([18]; first compound 0.06325 µM): 0.173
relative viability ([18]; first compound 0.2 µM): 0.0953
relative viability ([19]; first compound 0.002 µM): 0.363
relative viability ([19]; first compound 0.006325 µM): 0.352
relative viability ([19]; first compound 0.02 µM): 0.403
relative viability ([19]; first compound 0.06325 µM): 0.389
relative viability ([19]; first compound 0.2 µM): 0.232
relative viability ([20]; first compound 0.002 µM): 0.449
relative viability ([20]; first compound 0.006325 µM): 0.518
relative viability ([20]; first compound 0.02 µM): 0.377
relative viability ([20]; first compound 0.06325 µM): 0.364
relative viability ([20]; first compound 0.2 µM): 0.187
relative viability ([21]; first compound 0.002 µM): 0.783
relative viability ([21]; first compound 0.006325 µM): 0.693
relative viability ([21]; first compound 0.02 µM): 0.676
relative viability ([21]; first compound 0.06325 µM): 0.386
relative viability ([21]; first compound 0.2 µM): 0.322
